Experimental data published in US11382956B2, “Amylin analogues” (Zealand Pharma A/S, priority 2016, dated 2022).
Numbered stars: 1 amine (or outer) side, 2 acyl side, 3 side chain; on linkers, the order of the positions; unused ones are H or OH. Bridge positions count the residues as written; N and C are the ends. Square brackets hold non-standard residues; d marks the D form. Peptide text beside a SMILES is read from it. * marks the point of attachment. C20 diacid = O=C(O)CCCCCCCCCCCCCCCCCCC(=O)*; γGlu = O=C(O)[C@H](CCC(=O)[*:2])N[*:1]; Hyp = O=C(O)[C@@H]1C[C@@H](O)CN1; NMeI = CC[C@H](C)[C@H](NC)C(=O)O; Aad = N[C@@H](CCCC(=O)O)C(=O)O; Sar = CNCC(=O)O

Assays:
[1] = Assessment of physical stability: fibril formation by Thioflavin T fluorescence; assay type: physicochemical; parameters: key: FND = fibrillation not detected; FD = fibrillation detected; settings: 1 mg/mL peptide; for Fibrillation (in buffer) pH4 acetate: 50 mM acetate buffer pH 4.0, 96 hours at 40° C.; for Fibrillation (in buffer) pH7 histidine: 50 mM histidine buffer pH 7.0, 96 hours at 40° C.; for Fibrillation (in buffer) pH7 phosphate: 50 mM phosphate buffer pH 7.0, 96 hours at 40° C.
In short: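 Test peptide at 1 mg/mL with 40 μM ThT in 50 mM phosphate pH 7.0, 50 mM histidine pH 7.0, or 50 mM acetate pH 4.0, in triplicate. Fluorescence read every 10 min after 300 s agitation for 96 hours at 40° C; significant intensity rise scored as fibrillation detected (FD).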

[2] = Effect on acute food intake and body weight in normal Sprague Dawley rats; assay type: in vivo, Sprague Dawley (SD) rats; settings: vehicle-corrected
Excerpt: Sprague Dawley (SD) rats were obtained from Janvier Labs, France. The animals arrived at least 14 days before the study start to allow acclimatization to experimental conditions. From arrival and throughout the study, the rats were housed in groups of 2 to 4 (n=2-4) in a light-, temperature- and humidity-controlled room. Animals had access ad libitum to food (KLIBA 3430, Provimi Kliba AG, Switzerland) and water (domestic quality tap water) during the entire study. Per group 6-8 rats were included. A vehicle group and positive control group were included in each set of tests. […] Dosing volume was 2 ml/kg. Food intake was recorded online using an automated food intake system (HM02, MBRose, Denmark) for 4 days or manually at 0 h for a predose and then 24, 48, 72 and 96 h post dosing. Body weight was measured daily.
Statistical analyses were performed using GraphPad™ Prism version 7. The measured parameters were compared using two-way ANOVA followed by Dunnett's multiple comparison tests. Differences were considered statistically significant at p<0.05.

[3] = target: T1, recombinant human calcitonin receptor (hCT-R) (Homo sapiens, UniProt P30988); test: hCT-R cAMP assay (AlphaScreen) in 1321N1 cells; assay type: cell-based; settings: cAMP formation, 45 min stimulation
T1 construct: host or cells: human astrocytoma cell line 1321N1
T1 sequence (P30988 25-474): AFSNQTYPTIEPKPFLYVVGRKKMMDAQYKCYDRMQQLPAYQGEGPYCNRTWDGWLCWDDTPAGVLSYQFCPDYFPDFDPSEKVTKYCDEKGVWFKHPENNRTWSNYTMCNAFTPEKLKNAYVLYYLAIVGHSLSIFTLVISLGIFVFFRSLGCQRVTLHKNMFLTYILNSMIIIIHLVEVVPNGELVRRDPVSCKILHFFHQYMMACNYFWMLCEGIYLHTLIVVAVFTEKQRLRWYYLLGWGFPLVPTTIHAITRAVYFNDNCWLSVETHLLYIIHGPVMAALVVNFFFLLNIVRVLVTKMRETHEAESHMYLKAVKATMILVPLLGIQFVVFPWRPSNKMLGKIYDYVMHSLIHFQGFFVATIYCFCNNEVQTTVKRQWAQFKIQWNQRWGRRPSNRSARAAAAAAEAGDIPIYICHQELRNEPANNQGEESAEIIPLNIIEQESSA
In short: (§1)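 1321N1 astrocytoma cells expressing recombinant human calcitonin receptor alone or with RAMP3 (AMY3) stimulated 45 min at room temperature with peptide in IBMX-containing buffer. cAMP quantified by AlphaScreen after 1 h bead incubation; EC50 fitted from at least 7 concentrations.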

[4] = target: T2, recombinant human amylin 3 receptor (hAMYR3) (Homo sapiens, UniProt O60896+P30988); test: hAMYR3 cAMP assay (AlphaScreen) in 1321N1 cells; assay type: cell-based; settings: cAMP formation, 45 min stimulation
T2 construct: host or cells: human astrocytoma cell line 1321N1
T2 sequence (P30988 25-474): T1 sequence (P30988 25-474)
T2 sequence (O60896 24-148 partner): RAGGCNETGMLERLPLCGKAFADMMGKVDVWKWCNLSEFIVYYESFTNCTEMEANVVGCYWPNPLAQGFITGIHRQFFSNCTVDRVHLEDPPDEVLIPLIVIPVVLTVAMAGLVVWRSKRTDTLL
In short: as §1

[5] = Assessment of chemical stability in 40 mM buffers at 40° C. (RP-HPLC); assay type: physicochemical; settings: 1 mg/mL; for % degradation after 72 h at 40° C. pH4 acetate: acetate buffer pH 4, 72 h; for % degradation after 72 h at 40° C. pH6 phosphate: phosphate buffer pH 6, 72 h; for % degradation after 72 h at 40° C. pH7 phosphate: phosphate buffer pH 7, 72 h; for % degradation after 14 days at 40° C. pH6 phosphate: phosphate buffer pH 6, 14 days
In short: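 Peptides at 1 mg/mL in 40 mM acetate pH 4 or phosphate pH 6 and 7 were held at 40° C for 3 and 14 days. Main-peak area-% by C8 RP-HPLC, UV 220 nm; % degradation = change in main-peak area-% versus t=0.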

| SMILES | Fibrillation (in buffer) pH4 acetate [1] | Fibrillation (in buffer) pH7 histidine [1] | Fibrillation (in buffer) pH7 phosphate [1] | Body weight reduction in % at 48 h ([2]; Dose: 30 nmol/kg sc) | Food intake reduction in % at 48 h ([2]; Dose: 30 nmol/kg sc) | EC50 [3] | EC50 [4] | % degradation after 72 h at 40° C. pH4 acetate [5] | % degradation after 72 h at 40° C. pH6 phosphate [5] | % degradation after 72 h at 40° C. pH7 phosphate [5] | % degradation after 14 days at 40° C. pH6 phosphate [5] | Body weight reduction in % at 48 h ([2]; at dose of 10 nmol/kg sc) | Food intake reduction in % at 48 h ([2]; at dose of 10 nmol/kg sc) | % degradation after 14 days at 40° C. pH7 phosphate ([5]; phosphate buffer pH 7, 14 days) |
| --- | --- | --- | --- | --- | --- | --- | --- | --- | --- | --- | --- | --- | --- | --- |
| CC[C@H](C)[C@@H](C(=O)N1CCC[C@H]1C(=O)N[C@@H](CO)C(=O)N[C@@H](CO)C(=O)N[C@H](C(=O)N[C@@H](CCC(=O)O)C(=O)N[C@H](C(=O)NCC(=O)N[C@@H](CO)C(=O)N[C@@H](CC(N)=O)C(=O)N[C@H](C(=O)N1C[C@H](O)C[C@H]1C(N)=O)[C@@H](C)O)C(C)C)[C@@H](C)O)N(C)C(=O)[C@H](C)NC(=O)CN(C)C(=O)[C@H](Cc1ccccc1)NC(=O)[C@H](CO)NC(=O)[C@H](CO)NC(=O)[C@H](CCCNC(=N)N)NC(=O)[C@H](CCC(N)=O)NC(=O)[C@H](CC(C)C)NC(=O)[C@H](Cc1ccccc1)NC(=O)[C@H](Cc1c[nH]cn1)NC(=O)[C@H](C)NC(=O)[C@H](CC(C)C)NC(=O)[C@H](CCCNC(=N)N)NC(=O)[C@H](CCC(N)=O)NC(=O)[C@@H](NC(=O)[C@H](C)NC(=O)[C@@H]1CCCCNC(=O)C[C@H](NC(=O)[C@H](CCCNC(=N)N)NC(=O)CC[C@H](NC(=O)CCCCCCCCCCCCCCCCCCC(=O)O)C(=O)O)C(=O)NCC(=O)N[C@@H]([C@@H](C)O)C(=O)N[C@@H](C)C(=O)N[C@@H]([C@@H](C)O)C(=O)N1)[C@@H](C)O [Compound 15, [19CD]-isoGlu-RD()GTATK()ATQRLAHFLQRSSF-Gly(Me)-A-Ile(Me)-PSSTEVGSNT-Hyp-NH2] ({C20 diacid-γGlu}-RDGTATKATQRLAHFLQRSSF[Sar]A[NMeI]PSSTEVGSNT[Hyp]-NH2; lactam 2-7) | FND | FD | FD | 7.7% | 71% | 0.056 nM | 0.017 nM | <1% | <1% | <1% |  |  |  |  |
| CC[C@H](C)[C@@H](C(=O)N[C@@H](CC(C)C)C(=O)N[C@@H](CO)C(=O)N[C@@H](CO)C(=O)N[C@H](C(=O)N[C@@H](CCC(=O)O)C(=O)N[C@H](C(=O)NCC(=O)N[C@@H](CO)C(=O)N[C@@H](CC(N)=O)C(=O)N[C@H](C(=O)N1C[C@H](O)C[C@H]1C(N)=O)[C@@H](C)O)C(C)C)[C@@H](C)O)N(C)C(=O)[C@H](C)NC(=O)CN(C)C(=O)[C@H](Cc1ccccc1)NC(=O)[C@H](CO)NC(=O)[C@H](CO)NC(=O)[C@H](CCCNC(=N)N)NC(=O)[C@H](CCC(N)=O)NC(=O)[C@H](CC(C)C)NC(=O)[C@H](Cc1ccccc1)NC(=O)[C@H](Cc1c[nH]cn1)NC(=O)[C@H](C)NC(=O)[C@H](CC(C)C)NC(=O)[C@H](CCCNC(=N)N)NC(=O)[C@H](CCC(N)=O)NC(=O)[C@@H](NC(=O)[C@H](C)NC(=O)[C@@H]1CCCCNC(=O)C[C@H](NC(=O)[C@H](CCCNC(=N)N)NC(=O)CC[C@H](NC(=O)CCCCCCCCCCCCCCCCCCC(=O)O)C(=O)O)C(=O)NCC(=O)N[C@@H]([C@@H](C)O)C(=O)N[C@@H](C)C(=O)N[C@@H]([C@@H](C)O)C(=O)N1)[C@@H](C)O [Compound 16, [19CD]-isoGlu-RD()GTATK()ATQRLAHFLQRSSF-Gly(Me)-A-Ile(Me)-LSSTEVGSNT-Hyp-NH2] ({C20 diacid-γGlu}-RDGTATKATQRLAHFLQRSSF[Sar]A[NMeI]LSSTEVGSNT[Hyp]-NH2; lactam 2-7) |  |  |  | 7.4% | 66% | 0.043 nM | 0.035 nM |  |  |  | <1% |  |  |  |
| CC[C@H](C)[C@@H](C(=O)N1CCC[C@H]1C(=O)N[C@@H](CO)C(=O)N[C@@H](CO)C(=O)N[C@H](C(=O)N[C@@H](CCC(=O)O)C(=O)N[C@H](C(=O)NCC(=O)N[C@@H](CO)C(=O)N[C@@H](CC(N)=O)C(=O)N[C@H](C(=O)N1C[C@H](O)C[C@H]1C(N)=O)[C@@H](C)O)C(C)C)[C@@H](C)O)N(C)C(=O)[C@H](C)NC(=O)CN(C)C(=O)[C@H](Cc1ccccc1)NC(=O)[C@H](CO)NC(=O)[C@H](CO)NC(=O)[C@H](CCCNC(=N)N)NC(=O)[C@H](CCC(N)=O)NC(=O)[C@H](CC(C)C)NC(=O)[C@H](Cc1ccccc1)NC(=O)[C@H](CCCC(=O)O)NC(=O)[C@H](C)NC(=O)[C@H](CC(C)C)NC(=O)[C@H](CCCNC(=N)N)NC(=O)[C@H](CCC(=O)O)NC(=O)[C@@H](NC(=O)[C@H](C)NC(=O)[C@@H]1CCCCNC(=O)C[C@H](NC(=O)[C@H](CCC(=O)O)NC(=O)CC[C@H](NC(=O)CCCCCCCCCCCCCCCCCCC(=O)O)C(=O)O)C(=O)NCC(=O)N[C@@H]([C@@H](C)O)C(=O)N[C@@H](C)C(=O)N[C@@H]([C@@H](C)O)C(=O)N1)[C@@H](C)O [Compound 30, [19CD]-isoGlu-ED()GTATK()ATERLA-Aad-FLQRSSF-Gly(Me)-A-Ile(Me)-PSSTEVGSNT-Hyp-NH2] ({C20 diacid-γGlu}-EDGTATKATERLA[Aad]FLQRSSF[Sar]A[NMeI]PSSTEVGSNT[Hyp]-NH2; lactam 2-7) | FD | FND | FND | 0% | <20% | 0.232 nM | 0.122 nM |  |  |  |  |  |  |  |
| CC[C@H](C)[C@@H](C(=O)N[C@@H](CC(C)C)C(=O)N[C@@H](CO)C(=O)N[C@@H](CO)C(=O)N[C@H](C(=O)N[C@@H](CCC(=O)O)C(=O)N[C@H](C(=O)NCC(=O)N[C@@H](CO)C(=O)N[C@@H](CC(N)=O)C(=O)N[C@H](C(=O)N1C[C@H](O)C[C@H]1C(N)=O)[C@@H](C)O)[C@@H](C)O)[C@@H](C)O)N(C)C(=O)[C@H](C)NC(=O)CN(C)C(=O)[C@H](Cc1ccccc1)NC(=O)[C@H](CO)NC(=O)[C@H](CO)NC(=O)[C@H](CCCNC(=N)N)NC(=O)[C@H](CCC(N)=O)NC(=O)[C@H](CC(C)C)NC(=O)[C@H](Cc1ccccc1)NC(=O)[C@H](CCCC(=O)O)NC(=O)[C@H](C)NC(=O)[C@H](CC(C)C)NC(=O)[C@H](CCCNC(=N)N)NC(=O)[C@H](CCC(=O)O)NC(=O)[C@@H](NC(=O)[C@H](C)NC(=O)[C@@H]1CCCCNC(=O)C[C@H](NC(=O)[C@H](CCCNC(=N)N)NC(=O)CC[C@H](NC(=O)CCCCCCCCCCCCCCCCCCC(=O)O)C(=O)O)C(=O)NCC(=O)N[C@@H]([C@@H](C)O)C(=O)N[C@@H](C)C(=O)N[C@@H]([C@@H](C)O)C(=O)N1)[C@@H](C)O [Compound 36, [19CD]-isoGlu-RD()GTATK()ATERLA-Aad-FLQRSSF-Gly(Me)-A-Ile(Me)-LSSTETGSNT-Hyp-NH2] ({C20 diacid-γGlu}-RDGTATKATERLA[Aad]FLQRSSF[Sar]A[NMeI]LSSTETGSNT[Hyp]-NH2; lactam 2-7) | FD | FND | FND |  |  | 0.026 nM | 0.007 nM | 2.5% | 2.1% | 1.0% | 1.6% | 5.2% | 44% | <1% |
